Measurements taken from patent US6608027B1, “Macrocyclic peptides active against the hepatitis C virus” (Boehringer Ingelheim (Canada) Ltd, priority 1999, dated 2003).

Each molecule was assayed against T1, His-NS3-NS4AFL (full-length NS3-NS4A protein complex) (Hepatitis C virus genotype 1b, UniProt P26663) (assay: Full-length NS3-NS4A heterodimer protein fluorogenic assay). Conditions: not given.
T1 construct: made in house; host or cells: Sf21 insect cells, recombinant baculovirus (Bac-to-Bac, pFastBac HTa)
Assay type: biochemical, HCV genotype 1b
Excerpt: The NS2-NS5B-3′non coding region was cloned by RT-PCR into the pCR®3 vector (Invitrogen) using RNA extracted from the serum of an HCV genotype 1b infected individual (provided by Dr. Bernard Willems, Hôpital St-Luc, Montréal, Québec, Canada). The NS3-NS4A region (NS3-NS4AFL) was then subcloned by PCR into the pFastBac™ HTa baculovirus expression vector (Gibco/BRL). The vector sequence includes a region encoding a 28-residue N-terminal sequence which contains a hexahistidine tag. The Bac-to-Bac™ baculovirus expression system (Gibco/BRL) was used to produce the recombinant baculovirus. His-NS3-NS4AFL was expressed by infecting 10^6 Sf21 cells/mL with the recombinant baculovirus at a multiplicity of infection of 0.1-0.2 at 27°. Authentic auto-proteolysis occurs during expression to produce a non covalent and stable NS3-NS4A protein complex (referred to as full-length “FL”). The infected culture was harvested 48 to 64 h later by centrifugation at 4°. The cell pellet was homogenized in 50 mM NaPO4, pH 7.5, 40% glycerol (w/v), 2 mM β-mercaptoethanol, in presence of a cocktail of protease inhibitors. His-NS3-NS4AFL was then extracted from the cell lysate with 1.5% NP-40, 0.5% Triton X-100, 0.5M NaCl, and a DNase treatment. After ultracentrifugation, the soluble extract was diluted 4-fold and bound on a Pharmacia Hi-Trap Ni-chelating column. The His-NS3-NS4AFL was eluted in a >90% pure form (as judged by SDS-PAGE), using a 50 to 400 mM imidazole gradient. The His-NS3-NS4AFL was stored at −80° in 50 mM sodium phosphate, pH 7.5, 10% (w/v) glycerol, 0.5 M NaCl, 0.25 M imidazole, 0.1% NP-40. It was thawed on ice and diluted just prior to use.
The protease activity of His-NS3-NS4AFL was assayed in 50 mM Tris-HCl, pH 8.0, 0.25 M sodium citrate, 0.01% (w/v) n-dodecyl-β-D-maltoside, 1 mM TCEP. Five (5) μM of the internally quenched substrate anthranilyl-DDIVPAbu[C(O)—O]-AMY(3-NO2)TW-OH (SEQ. ID NO.: 1) in presence of various concentrations of inhibitor were incubated with 1.5 nM of His-NS3-NS4AFL for 45 min at 23°. […] The reaction was terminated with the addition of 1M MES, pH 5.8. Fluorescence of the N-terminal product was monitored on a Perkin-Elmer LS-50B fluorometer equipped with a 96-well plate reader (excitation wavelength: 325 nm, emission wavelength: 423 nm).
The % inhibition was calculated with the following equation:
100−[(fluoinh−fluoblank)/(fluoctl−fluoblank)×100]
A non-linear curve fit with the Hill model was applied to the inhibition-concentration data, and the 50% effective concentration (IC50) was calculated by the use of SAS software (Statistical Software System; SAS Institute, Inc. Cary, N.C.).

T1 sequence (P26663 1658-1711): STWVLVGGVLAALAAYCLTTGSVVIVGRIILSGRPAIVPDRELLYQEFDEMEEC
T1 sequence (P26663 1027-1657): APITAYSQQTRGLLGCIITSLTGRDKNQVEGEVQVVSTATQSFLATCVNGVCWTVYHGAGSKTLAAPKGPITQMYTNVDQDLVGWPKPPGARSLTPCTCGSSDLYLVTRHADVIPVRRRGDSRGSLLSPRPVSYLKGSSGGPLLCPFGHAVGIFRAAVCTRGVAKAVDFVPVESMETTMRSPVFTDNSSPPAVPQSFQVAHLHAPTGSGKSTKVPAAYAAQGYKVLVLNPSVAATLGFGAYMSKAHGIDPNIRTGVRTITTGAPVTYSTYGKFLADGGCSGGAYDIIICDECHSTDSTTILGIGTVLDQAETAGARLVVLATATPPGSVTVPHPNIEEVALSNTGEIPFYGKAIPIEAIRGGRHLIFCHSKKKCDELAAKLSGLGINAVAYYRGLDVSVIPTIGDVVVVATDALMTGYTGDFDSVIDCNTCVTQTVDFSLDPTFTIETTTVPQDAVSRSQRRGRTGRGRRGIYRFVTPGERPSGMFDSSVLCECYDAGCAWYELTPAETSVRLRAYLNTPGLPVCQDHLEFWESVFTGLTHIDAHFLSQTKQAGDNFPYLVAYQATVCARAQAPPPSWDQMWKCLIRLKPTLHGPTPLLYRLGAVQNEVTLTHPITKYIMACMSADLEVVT

COc1ccc2c(O[C@@H]3C[C@H]4C(=O)N[C@]5(C(=O)O)C[C@H]5/C=C\CCC(O)CC[C@H](NC(=O)OC(C)(C)C)C(=O)N4C3)cc(-c3ccccc3)nc2c1 (mixture of isomers) [Compound 217] and COc1ccc2c(O[C@@H]3C[C@H]4C(=O)N[C@]5(C(=O)O)C[C@H]5/C=C\CCCCC[C@H](NC(=O)OC(C)(C)C)C(=O)N4C3)cc(-c3ccccc3)nc2c1 [Compound 208] cannot be ordered by IC50: less than 100 nM for the first, less than 100 nM for the second.

Compared with COc1ccc2c(O[C@@H]3C[C@H]4C(=O)N[C@]5(C(=O)O)C[C@H]5/C=C\CCCCCC(O)C(=O)N4C3)ccnc2c1 (single isomer, unassigned) [Compound 213], COc1ccc2c(O[C@@H]3C[C@H]4C(=O)N[C@]5(C(=O)O)C[C@H]5/C=C\CCCCC[C@H](NC(=O)OC(C)(C)C)C(=O)N4C3)ccnc2c1 [Compound 207] is lower in IC50: 100 to 1000 nM for the first, less than 100 nM for the second.

First: CC(C)(C)OC(=O)N[C@H]1CCC/C=C/CC[C@@H]2C[C@@]2(C(=O)O)NC(=O)[C@@H]2CC(Oc3ccnc4ccccc34)CN2C1=O (stereo partly drawn) [Compound 202]
Second: CC(=O)N[C@H]1CCC/C=C/CC[C@@H]2C[C@@]2(C(=O)O)NC(=O)[C@@H]2CC(Oc3ccnc4ccccc34)CN2C1=O (stereo partly drawn) [Compound 203]
The IC50 of the first is lower: 100 to 1000 nM for the first, greater than 1000 nM for the second. The first is the more potent here.

First: CC(C)(C)OC(=O)N[C@H]1CCCC(O)C(O)CC[C@@H]2C[C@@]2(C(=O)O)NC(=O)[C@@H]2CC(Oc3ccnc4ccccc34)CN2C1=O (stereo partly drawn) [Compound 205]
Second: CC(C)(C)OC(=O)N[C@H]1CCCCC/C=C\[C@@H]2C[C@@]2(C(=O)O)NC(=O)[C@@H]2C[C@@H](Oc3ccnc4ccccc34)CN2C1=O [Compound 206]
The IC50 of the first is higher: 100 to 1000 nM for the first, less than 100 nM for the second. The second is the more potent here.

COc1ccc2c(O[C@@H]3C[C@H]4C(=O)N[C@]5(C(=O)O)CC5/C=C\CCCCC[C@H](NC(=O)NC(C)(C)C)C(=O)N4C3)cc(-c3ccccc3)nc2c1 (stereo partly drawn) [Compound 209] and COc1ccc2c(O[C@@H]3C[C@H]4C(=O)N[C@]5(C(=O)O)C[C@H]5/C=C\CCCCC[C@H](N)C(=O)N4C3)cc(-c3ccccc3)nc2c1 [Compound 211] cannot be ordered by IC50: less than 100 nM for the first, less than 100 nM for the second.

COc1ccc2c(O[C@@H]3C[C@H]4C(=O)N[C@]5(C(=O)O)C[C@H]5CCCCCCC[C@H](NC(=O)OC(C)(C)C)C(=O)N4C3)cc(-c3ccccc3)nc2c1 [Compound 215] and COc1ccc2c(O[C@@H]3C[C@H]4C(=O)N[C@]5(C(=O)O)C[C@H]5CCCCCCC[C@H](NC(C)=O)C(=O)N4C3)cc(-c3ccccc3)nc2c1 [Compound 219] cannot be ordered by IC50: less than 100 nM for the first, less than 100 nM for the second.

For COc1ccc2c(O[C@@H]3C[C@H]4C(=O)N[C@]5(C(=O)O)C[C@@H]5/C=C\CCCCC[C@H](NC(=O)OC(C)(C)C)C(=O)N4C3)cc(-c3nccs3)nc2c1 [Compound 220], the IC50 was less than 100 nM.

Same assay, conditions: fluorogenic assay of Example 48; no asterisk; read-out: enzyme activity (IC50 grade)

First: CC(C)(C)OC(=O)N[C@H]1CCCCCC=CCCC2CC2(C(=O)O)NC(=O)[C@@H]2C[C@@H](Oc3ccnc4ccccc34)CN2C1=O (single isomer, unassigned) [Compound 301]
Second: COc1ccc2c(O[C@@H]3C[C@H]4C(=O)N[C@]5(C(=O)O)C[C@H]5CC/C=C/CCC[C@H](NC(=O)OC(C)(C)C)C(=O)N4C3)cc(-c3ccccc3)nc2c1 [Compound 401]
The IC50 of the first is higher: 100 to 1000 nM for the first, less than 100 nM for the second. The second is the more potent here.

Compared with COc1ccc2c(O[C@@H]3C[C@H]4C(=O)N[C@]5(C(=O)O)C[C@@H]5/C=C/CCC[C@H](NC(=O)OC(C)(C)C)C(=O)N4C3)cc(-c3ccccc3)nc2c1 [Compound 302], COc1ccc2c(O[C@@H]3C[C@H]4C(=O)N[C@]5(C(=O)O)C[C@@H]5/C=C/COCCC[C@H](NC(=O)OC(C)(C)C)C(=O)N4C3)cc(-c3ccccc3)nc2c1 [Compound 303] is lower in IC50: greater than 1000 nM for the first, 100 to 1000 nM for the second. The second is the more potent here.

First: COc1ccc2c(O[C@@H]3C[C@H]4C(=O)N[C@]5(C(=O)O)C[C@H]5C=CCCCC=CC[C@H](NC(=O)OC(C)(C)C)C(=O)N4C3)cc(-c3ccccc3)nc2c1 [Compound 304]
Second: COc1ccc2c(O[C@@H]3C[C@H]4C(=O)N[C@]5(C(=O)O)C[C@H]5/C=C\COCCC[C@H](O)C(=O)N4C3)cc(-c3ccccc3)nc2c1 [Compound 305]
The IC50 of the first is lower: less than 100 nM for the first, 100 to 1000 nM for the second. The first is the more potent here.

COc1ccc2c(O[C@@H]3C[C@H]4C(=O)N[C@]5(C(=O)O)C[C@H]5/C=C\CCCCCC[C@H](NC(=O)OC(C)(C)C)C(=O)N4C3)cc(-c3csc(NC(C)=O)n3)nc2c1 [Compound 307] and CCOc1cc(O[C@@H]2C[C@H]3C(=O)N[C@]4(C(=O)O)C[C@H]4/C=C\CCCCC[C@H](NC(C)=O)C(=O)N3C2)c2ccc(OC)cc2n1 [Compound 308] cannot be ordered by IC50: less than 100 nM for the first, less than 100 nM for the second.

Each molecule was assayed against T2, NS3 protease (Hepatitis C virus genotype 1b, UniProt P26663) (assay: NS3 protease cell-based assay (SEAP reporter, Huh-7 cells)). Conditions: SEAP activity, 24-hour incubation, read-out: cell. act. (EC50 code).
T2 construct: expressed in transfected cells; host or cells: Huh-7 human hepatoma cells, transient co-transfection (CMV promoter)
Parameters: species or system HCV
Excerpt: This assay is done with Huh-7 cells, a human cell line derived from a hepatoma, co-transfected with 2 DNA constructs: one (called NS3) expressing part of the HCV non-structural polyprotein fused to the tTA protein through an NS5A-NS5B cleavage site in the following order: NS3-NS4A-NS4B-NS5A-(NS5B)tTA where (NS5B) represents the 6 first amino acids of NS5
B. This polyprotein is expressed under the control of the CMV promoter, the other (called SEAP) expressing the reporter protein, secreted alkaline phosphatase (SEAP), under the regulation of a tTA-responsive promoter. The first construct leads to the expression of a polyprotein from which the different mature proteins are released through cleavage by the NS3 protease. It is believed that the mature viral proteins forms a complex at the membrane of the endoplasmic reticulum. tTA is a fusion protein, described by Gossen and Bujard (Proc. Natl. Acad. Sci. USA 89 (1992): 5547-5551), which contains a DNA-binding domain and a transcriptional activator. Release of the tTA protein requires an NS3-dependent cleavage at the NS5A-NS5B cleavage site between NS5A and itself. This last cleavage allows tTA to migrate to the nucleus and transactivate the SEAP gene. Therefore, reduction of NS3 proteolytic activity leads to confinement of tTA to the cytoplasm and concomitant decrease in SEAP activity.
To control for cellular activities other than inhibition of NS3 protease which are due to the compound, a parallel co-transfection is done with a construct expressing tTA alone and the same reporter construct such that SEAP activity is independent of the NS3 protease.
Protocol of the assay: Huh-7 cells, grown in CHO-SFMII (Life Technologies)+10% FCS (fetal calf serum) were co-transfected with the two DNA constructs in the following proportions: 7 μg NS3+500 ng SEAP+[…] FuGENE (Boehringer Mannheim) per 4×10^6 Huh-7 cells. After 5 hours at 37° C., the cells were washed, trypsinized and plated (at 80 000 cells/well) in 96-well plates containing a range of concentrations of the compounds to be tested. After a 24-hour incubation period, the SEAP activity in the medium was measured with the Phospha-Light kit (Tropix).
Analysis of the percent inhibition of SEAP activity with respect to compound concentration was performed with the SAS software to obtain the EC50.

T2 sequence (P26663 1658-1711): as the sequence (P26663 1658-1711) above
T2 sequence (P26663 1027-1657): as the sequence (P26663 1027-1657) above

COc1ccc2c(O[C@@H]3C[C@H]4C(=O)N[C@]5(C(=O)O)CC5/C=C\CCCCC[C@H](NC(=O)OC5CCCC5)C(=O)N4C3)cc(-c3csc(NC4CCC4)n3)nc2c1 (stereo partly drawn) [Compound 826] and COc1ccc2c(O[C@@H]3C[C@H]4C(=O)N[C@]5(C(=O)O)CC5/C=C\CCCCC[C@H](NC(=O)OC5CCCC5)C(=O)N4C3)cc(-c3csc(NC4CCCC4)n3)nc2c1 (stereo partly drawn) [Compound 827] cannot be ordered by EC50: no more than 1000 nM for the first, no more than 1000 nM for the second.

COc1ccc2c(O[C@@H]3C[C@H]4C(=O)N[C@]5(C(=O)O)CC5/C=C\CCCCC[C@H](NC(=O)OC5CCCC5)C(=O)N4C3)cc(-c3csc(NC4CCCCC4)n3)nc2c1 (stereo partly drawn) [Compound 828] and COc1ccc2c(O[C@@H]3C[C@H]4C(=O)N[C@]5(C(=O)O)CC5CCCCCCC[C@H](NC(=O)OC5CCCC5)C(=O)N4C3)cc(-c3csc(NC(C)=O)n3)nc2c1 (stereo partly drawn) [Compound 909] cannot be ordered by EC50: no more than 1000 nM for the first, no more than 1000 nM for the second.

COc1ccc2c(O[C@@H]3C[C@H]4C(=O)N[C@]5(C(=O)O)CC5CCCCCCC[C@H](NC(=O)OC5CCCC5)C(=O)N4C3)cc(-c3nc(C(C)C)cs3)nc2c1 (stereo partly drawn) [Compound 906] and COc1ccc2c(O[C@@H]3C[C@H]4C(=O)N[C@]5(C(=O)O)CC5CCCCCCC[C@H](NC(=O)OC5CCCC5)C(=O)N4C3)cc(-c3csc(NC(C)C)n3)nc2c1 (stereo partly drawn) [Compound 911] cannot be ordered by EC50: no more than 1000 nM for the first, no more than 1000 nM for the second.

COc1ccc2c(O[C@@H]3C[C@H]4C(=O)N[C@]5(C(=O)O)CC5CCCCCCC[C@H](NC(=O)OC5CCCC5)C(=O)N4C3)cc(-n3cccc3)nc2c1 (stereo partly drawn) [Compound 907] and COc1ccc2c(O[C@@H]3C[C@H]4C(=O)N[C@]5(C(=O)O)CC5CCCCCCC[C@H](NC(=O)OC5CCCC5)C(=O)N4C3)cc(-c3csc(N)n3)nc2c1 (stereo partly drawn) [Compound 908] cannot be ordered by EC50: no more than 1000 nM for the first, no more than 1000 nM for the second.

CCNc1nc(-c2cc(O[C@@H]3C[C@H]4C(=O)N[C@]5(C(=O)O)CC5CCCCCCC[C@H](NC(=O)OC5CCCC5)C(=O)N4C3)c3ccc(OC)cc3n2)cs1 (stereo partly drawn) [Compound 910] showed an EC50 of no more than 1000 nM.
